Measured values as given in paper PMC6409085, “Three odorant-binding proteins are involved in the behavioral response of Sogatella furcifera to rice plant volatiles” (PeerJ, 2019).
Values joined by “and” are separate entries in the source; they are usually repeats but may differ in a detail not shown here. Identical values can stand only once.

Assays:
Experiment in all cases: biochemical
Assay type in all cases: binding
SfurOBP1 = SfurOBP1 (Sogatella furcifera, UniProt V5T8N5); details: for Fluorescence competitive binding assay, fluorescence intensity: OBP1, three replicate columns
Summary of the method: (§1)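 Fluorescence competitive binding used 2.0 µM SfurOBP and 2.0 µM 1-NPN reporter in 50 mM Tris-HCl, pH 7.4, with odorants at 2-20 µM. Fluorescence was read 2 min after adding the odorant (excitation 337 nm, emission 390-490 nm), in triplicate. Ki was calculated from IC50 as IC50/(1 + [1-NPN]/K1-NPN).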

SfurOBP2 = SfurOBP2 (Sogatella furcifera, UniProt V5T759)
Summary of the method: as §1

SfurOBP11 = SfurOBP11 (Sogatella furcifera, UniProt V5T6E3)
Summary of the method: as §1

SfurOBP3 = SfurOBP3 (Sogatella furcifera, UniProt V5T818); details: for Fluorescence competitive binding assay, fluorescence intensity: OBP3, three replicate columns
Summary of the method: as §1

Sequence of SfurOBP11 (V5T6E3 entry or part of it): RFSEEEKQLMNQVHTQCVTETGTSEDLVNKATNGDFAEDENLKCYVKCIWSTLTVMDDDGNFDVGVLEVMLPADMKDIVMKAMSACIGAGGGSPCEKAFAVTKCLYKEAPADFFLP
Sequence of SfurOBP1 (V5T8N5 entry or part of it): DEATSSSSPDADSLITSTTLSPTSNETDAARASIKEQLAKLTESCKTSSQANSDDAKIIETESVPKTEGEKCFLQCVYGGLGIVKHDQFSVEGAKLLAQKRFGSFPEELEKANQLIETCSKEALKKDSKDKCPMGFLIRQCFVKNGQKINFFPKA
Sequence of SfurOBP3 (V5T818 entry or part of it): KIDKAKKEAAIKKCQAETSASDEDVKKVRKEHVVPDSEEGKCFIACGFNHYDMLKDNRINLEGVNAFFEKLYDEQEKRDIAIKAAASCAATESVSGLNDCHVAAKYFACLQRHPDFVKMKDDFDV
Sequence of SfurOBP2 (V5T759 entry or part of it): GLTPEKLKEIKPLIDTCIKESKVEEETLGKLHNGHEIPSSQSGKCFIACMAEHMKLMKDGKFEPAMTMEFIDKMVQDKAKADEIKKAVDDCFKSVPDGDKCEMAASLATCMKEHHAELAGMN

Fluorescence competitive binding assay, fluorescence intensity (SfurOBP1; ligand concentration 2 (μM)): 7330 and 7109 and 7550
Fluorescence competitive binding assay, fluorescence intensity (SfurOBP1; ligand concentration 4 (μM)): 7885 and 9070 and 8350
Fluorescence competitive binding assay, fluorescence intensity (SfurOBP1; ligand concentration 6 (μM)): 9355 and 9996 and 9183
Fluorescence competitive binding assay, fluorescence intensity (SfurOBP1; ligand concentration 8 (μM)): 11640 and 10265 and 9349
Fluorescence competitive binding assay, fluorescence intensity (SfurOBP1; ligand concentration 10 (μM)): 10389 and 10452 and 10917
Fluorescence competitive binding assay, fluorescence intensity (SfurOBP1; ligand concentration 12 (μM)): 10679 and 10989 and 10151
Fluorescence competitive binding assay, fluorescence intensity (SfurOBP1; ligand concentration 14 (μM)): 12105 and 10979 and 11552
Fluorescence competitive binding assay, fluorescence intensity (SfurOBP1; ligand concentration 16 (μM)): 10141 and 15672 and 8010
Fluorescence competitive binding assay, fluorescence intensity (SfurOBP1; ligand concentration 18 (μM)): 13868 and 12649 and 12554
Fluorescence competitive binding assay, fluorescence intensity (SfurOBP1; ligand concentration 20 (μM)): 12803 and 13119 and 10975
IC50 (SfurOBP1; SfurOBP1, protein and 1-NPN both 2.0 µM, competitor 2-20 µM, read-out: IC50): > 20 µM
IC50 (SfurOBP2; SfurOBP2, protein and 1-NPN both 2.0 µM, competitor 2-20 µM, read-out: IC50): > 20 µM
Fluorescence competitive binding assay, OBP2 (raw fluorescence reading) (SfurOBP2; ligand concentration 2 (unit not given), replicate column 1 of 3): 15935
Fluorescence competitive binding assay, OBP2 (raw fluorescence reading) (SfurOBP2; ligand concentration 2 (unit not given), replicate column 2 of 3): 15877
Fluorescence competitive binding assay, OBP2 (raw fluorescence reading) (SfurOBP2; ligand concentration 2 (unit not given), replicate column 3 of 3): 16010
Fluorescence competitive binding assay, OBP2 (raw fluorescence reading) (SfurOBP2; ligand concentration 4 (unit not given), replicate column 1 of 3): 16483
Fluorescence competitive binding assay, OBP2 (raw fluorescence reading) (SfurOBP2; ligand concentration 4 (unit not given), replicate column 2 of 3): 17483
Fluorescence competitive binding assay, OBP2 (raw fluorescence reading) (SfurOBP2; ligand concentration 4 (unit not given), replicate column 3 of 3): 15472
Fluorescence competitive binding assay, OBP2 (raw fluorescence reading) (SfurOBP2; ligand concentration 6 (unit not given), replicate column 1 of 3): 19539
Fluorescence competitive binding assay, OBP2 (raw fluorescence reading) (SfurOBP2; ligand concentration 6 (unit not given), replicate column 2 of 3): 15243
Fluorescence competitive binding assay, OBP2 (raw fluorescence reading) (SfurOBP2; ligand concentration 6 (unit not given), replicate column 3 of 3): 16407
Fluorescence competitive binding assay, OBP2 (raw fluorescence reading) (SfurOBP2; ligand concentration 8 (unit not given), replicate column 1 of 3): 19867
Fluorescence competitive binding assay, OBP2 (raw fluorescence reading) (SfurOBP2; ligand concentration 8 (unit not given), replicate column 2 of 3): 20728
Fluorescence competitive binding assay, OBP2 (raw fluorescence reading) (SfurOBP2; ligand concentration 8 (unit not given), replicate column 3 of 3): 17103
Fluorescence competitive binding assay, OBP2 (raw fluorescence reading) (SfurOBP2; ligand concentration 10 (unit not given), replicate column 1 of 3): 20161
Fluorescence competitive binding assay, OBP2 (raw fluorescence reading) (SfurOBP2; ligand concentration 10 (unit not given), replicate column 2 of 3): 19779
Fluorescence competitive binding assay, OBP2 (raw fluorescence reading) (SfurOBP2; ligand concentration 10 (unit not given), replicate column 3 of 3): 18765
Fluorescence competitive binding assay, OBP2 (raw fluorescence reading) (SfurOBP2; ligand concentration 12 (unit not given), replicate column 1 of 3): 19327
Fluorescence competitive binding assay, OBP2 (raw fluorescence reading) (SfurOBP2; ligand concentration 12 (unit not given), replicate column 2 of 3): 19917
Fluorescence competitive binding assay, OBP2 (raw fluorescence reading) (SfurOBP2; ligand concentration 12 (unit not given), replicate column 3 of 3): 19157
Fluorescence competitive binding assay, OBP2 (raw fluorescence reading) (SfurOBP2; ligand concentration 14 (unit not given), replicate column 1 of 3): 20768
Fluorescence competitive binding assay, OBP2 (raw fluorescence reading) (SfurOBP2; ligand concentration 14 (unit not given), replicate column 2 of 3): 19570
Fluorescence competitive binding assay, OBP2 (raw fluorescence reading) (SfurOBP2; ligand concentration 14 (unit not given), replicate column 3 of 3): 20399
Fluorescence competitive binding assay, OBP2 (raw fluorescence reading) (SfurOBP2; ligand concentration 16 (unit not given), replicate column 1 of 3): 18977
Fluorescence competitive binding assay, OBP2 (raw fluorescence reading) (SfurOBP2; ligand concentration 16 (unit not given), replicate column 2 of 3): 19385
Fluorescence competitive binding assay, OBP2 (raw fluorescence reading) (SfurOBP2; ligand concentration 16 (unit not given), replicate column 3 of 3): 18242
Fluorescence competitive binding assay, OBP2 (raw fluorescence reading) (SfurOBP2; ligand concentration 18 (unit not given), replicate column 1 of 3): 20374
Fluorescence competitive binding assay, OBP2 (raw fluorescence reading) (SfurOBP2; ligand concentration 18 (unit not given), replicate column 2 of 3): 20001
Fluorescence competitive binding assay, OBP2 (raw fluorescence reading) (SfurOBP2; ligand concentration 18 (unit not given), replicate column 3 of 3): 19071
Fluorescence competitive binding assay, OBP2 (raw fluorescence reading) (SfurOBP2; ligand concentration 20 (unit not given), replicate column 1 of 3): 20399
Fluorescence competitive binding assay, OBP2 (raw fluorescence reading) (SfurOBP2; ligand concentration 20 (unit not given), replicate column 2 of 3): 20700
Fluorescence competitive binding assay, OBP2 (raw fluorescence reading) (SfurOBP2; ligand concentration 20 (unit not given), replicate column 3 of 3): 18461
IC50 (SfurOBP11; SfurOBP11, protein and 1-NPN both 2.0 µM, competitor 2-20 µM, read-out: IC50): 3.5 µM
Fluorescence intensity, fluorescence competitive binding assay, OBP11 (SfurOBP11; ligand concentration 2, replicate 1): 16266
Fluorescence intensity, fluorescence competitive binding assay, OBP11 (SfurOBP11; ligand concentration 2, replicate 2): 15087
Fluorescence intensity, fluorescence competitive binding assay, OBP11 (SfurOBP11; ligand concentration 2, replicate 3): 17001
Fluorescence intensity, fluorescence competitive binding assay, OBP11 (SfurOBP11; ligand concentration 4, replicate 1): 17687
Fluorescence intensity, fluorescence competitive binding assay, OBP11 (SfurOBP11; ligand concentration 4, replicate 2): 17526
Fluorescence intensity, fluorescence competitive binding assay, OBP11 (SfurOBP11; ligand concentration 4, replicate 3): 17848
Fluorescence intensity, fluorescence competitive binding assay, OBP11 (SfurOBP11; ligand concentration 6, replicate 1): 16356
Fluorescence intensity, fluorescence competitive binding assay, OBP11 (SfurOBP11; ligand concentration 6, replicate 2): 18409
Fluorescence intensity, fluorescence competitive binding assay, OBP11 (SfurOBP11; ligand concentration 6, replicate 3): 17383
Fluorescence intensity, fluorescence competitive binding assay, OBP11 (SfurOBP11; ligand concentration 8, replicate 1): 17184
Fluorescence intensity, fluorescence competitive binding assay, OBP11 (SfurOBP11; ligand concentration 8, replicate 2): 18342
Fluorescence intensity, fluorescence competitive binding assay, OBP11 (SfurOBP11; ligand concentration 8, replicate 3): 18652
Fluorescence intensity, fluorescence competitive binding assay, OBP11 (SfurOBP11; ligand concentration 10, replicate 1): 18889
Fluorescence intensity, fluorescence competitive binding assay, OBP11 (SfurOBP11; ligand concentration 10, replicate 2): 17441
Fluorescence intensity, fluorescence competitive binding assay, OBP11 (SfurOBP11; ligand concentration 10, replicate 3): 20338
Fluorescence intensity, fluorescence competitive binding assay, OBP11 (SfurOBP11; ligand concentration 12, replicate 1): 19011
Fluorescence intensity, fluorescence competitive binding assay, OBP11 (SfurOBP11; ligand concentration 12, replicate 2): 18892
Fluorescence intensity, fluorescence competitive binding assay, OBP11 (SfurOBP11; ligand concentration 12, replicate 3): 20835
Fluorescence intensity, fluorescence competitive binding assay, OBP11 (SfurOBP11; ligand concentration 14, replicate 1): 21007
Fluorescence intensity, fluorescence competitive binding assay, OBP11 (SfurOBP11; ligand concentration 14, replicate 2): 21377
Fluorescence intensity, fluorescence competitive binding assay, OBP11 (SfurOBP11; ligand concentration 14, replicate 3): 20817
Fluorescence intensity, fluorescence competitive binding assay, OBP11 (SfurOBP11; ligand concentration 16, replicate 1): 23140
Fluorescence intensity, fluorescence competitive binding assay, OBP11 (SfurOBP11; ligand concentration 16, replicate 2): 21703
Fluorescence intensity, fluorescence competitive binding assay, OBP11 (SfurOBP11; ligand concentration 16, replicate 3): 22422
Fluorescence intensity, fluorescence competitive binding assay, OBP11 (SfurOBP11; ligand concentration 18, replicate 1): 27356
Fluorescence intensity, fluorescence competitive binding assay, OBP11 (SfurOBP11; ligand concentration 18, replicate 2): 26038
Fluorescence intensity, fluorescence competitive binding assay, OBP11 (SfurOBP11; ligand concentration 18, replicate 3): 25306
Fluorescence intensity, fluorescence competitive binding assay, OBP11 (SfurOBP11; ligand concentration 20, replicate 1): 26659
Fluorescence intensity, fluorescence competitive binding assay, OBP11 (SfurOBP11; ligand concentration 20, replicate 2): 25183
Fluorescence intensity, fluorescence competitive binding assay, OBP11 (SfurOBP11; ligand concentration 20, replicate 3): 25906
Fluorescence competitive binding assay, fluorescence intensity (SfurOBP3; ligand concentration 2): 81785 and 76872 and 83999
Fluorescence competitive binding assay, fluorescence intensity (SfurOBP3; ligand concentration 4): 101881 and 87909 and 87470
Fluorescence competitive binding assay, fluorescence intensity (SfurOBP3; ligand concentration 6): 71457 and 61006 and 51881
Fluorescence competitive binding assay, fluorescence intensity (SfurOBP3; ligand concentration 8): 71819 and 64171 and 69972
Fluorescence competitive binding assay, fluorescence intensity (SfurOBP3; ligand concentration 10): 63459 and 67080 and 84824
Fluorescence competitive binding assay, fluorescence intensity (SfurOBP3; ligand concentration 12): 64327 and 73125 and 73637
Fluorescence competitive binding assay, fluorescence intensity (SfurOBP3; ligand concentration 14): 85412 and 71741 and 71210
Fluorescence competitive binding assay, fluorescence intensity (SfurOBP3; ligand concentration 16): 78313 and 80279 and 70309
Fluorescence competitive binding assay, fluorescence intensity (SfurOBP3; ligand concentration 18): 77162 and 77902 and 55555
Fluorescence competitive binding assay, fluorescence intensity (SfurOBP3; ligand concentration 20): 68113 and 75065 and 101895
IC50 (SfurOBP3; SfurOBP3, protein and 1-NPN both 2.0 µM, competitor 2-20 µM, read-out: IC50): > 20 µM
SMILES: C/C(=C\CO)CCC[C@H](C)CCC[C@H](C)CCCC(C)C [plant alcohol]
